Test results from US20240343699A1, “DERIVATIVES OF SUBSTITUTED MORPHOLINES AND USES THEREOF” (Supernus Pharmaceuticals, Inc., priority 2023, published 2024).
Values joined by “and” are separate entries in the source; they are usually repeats but may differ in a detail not shown here. Identical values can stand only once. Like-named read-outs stand apart in the source and are kept apart here.

Legend:
[1] = test system: immobility; test: Tail suspension test (TST)
Description: The tail suspension test is an experimental method used in scientific research to measure a state of being helpless in rodents, especially in mice. It is based on the observation that if a mouse is subjected to short term inescapable stress then the mouse will stop struggling. Immobility is quantified by measuring the amount of time lacking whole body activity.
The immobilized time in the last 4 min of the TST, which indicated depression-like behavior, was quantified using offline video manual scoring in a blinded manner.
Animals. Adult (7 to 8 weeks) male mice (C57Bl/6, Charles River Laboratories) were used in the study. Upon arrival, animals were group-housed (5/cage) with access to food and water ad libitum. Animals were maintained on a 12/12-hour light/dark cycle in a temperature—(22±2° C.) and humidity—(approx. 50%) controlled room. Animals were numbered consecutively by tail marks. Each cage was identified by a card indicating the study number, sex, animal numbers and date of birth.
Test article formulations were prepared fresh based on weight-to-volume in the vehicle on each dosing day. […] The appearance of the formulations was clear, with no precipitations. […] A vehicle group was included for comparison.
Monitoring. A piezoelectric sensor operated by the SmartCage system was utilized and video recording was conducted for scoring. After animals acclimated to the testing room, an individual mouse's tail was placed onto the piezoelectric sensor-board and the mouse was hung upside down, which signaled the immediate start of the recording of struggle activity, and it lasted for 6 min. The mouse was then taken off and returned to the home cage. The immobilized time, indicating depression-like behavior, was quantified using manual scoring of the video recordings for the period from 120 seconds to 360 seconds during TST. The percent immobility time was calculated: (immobility time/240 seconds)*100.
The immobilized time in the last 4 min of the TST, which indicates depression-like behavior, was quantified using offline video manual scoring in a blinded manner.
Animals. Adult (8 weeks, approximately 20-25 g) male mice (C57Bl/6, Vendor: Charles River Laboratories) were used in the study. Upon arrival, animals were group-housed (5/cage) with access to food and water ad libitum. Animals were maintained on a 12/12-hour light/dark cycle in a temperature—(22±2° C.) and humidity—(35-50%) controlled room. Animals were numbered consecutively by tail ID. Each cage was identified by a colored card indicating the study number, sex, animal numbers and date of birth.
Test article formulations were prepared fresh based on weight-to-volume in the vehicle on dosing day. […] The appearance of the formulations was clear, with no precipitations.
The tail suspension test is an experimental method used in scientific research to measure a state of being helpless in rodents, especially in mice. It is based on the observation that if a mouse is subjected to short term inescapable stress then the mice will give up struggling. “Immobility” is quantified by measuring the amount of time during which the animal has no whole-body activity.
Tail Suspension Test (TST). A piezoelectric sensor operated by the SmartCage system was utilized and video recording was conducted for scoring. Once animals were acclimated to the testing room, the TST was initiated by placing the tail of the test mouse onto the piezoelectric sensor-board and hanging the mouse upside down. The recording period was initiated once the mouse was upside down and lasted for 6 min. After the recording period, the mouse was removed from the recording device and returned to its home cage.

[2] = test system: locomotor activity; test: SmartCage locomotor activity; conditions: 24 hr
Description: Animals. […] Upon arrival at the facility, animals were group-housed (5/cage) with access to food and water ad libitum. Animals were maintained on a 12/12-hour light/dark cycle in a temperature—(22±2° C.) and humidity-(approx.35-50%) controlled room. Animals were numbered consecutively by tail ID marker in each home cage.
Locomotor Activity Monitoring. […] After the first day, animals were administered one of four doses (PO) of test article and monitored for the next 24 hours. The animal's activity during the monitored hours was quantified using the parameters of distance travelled, time active, and rearing activity.
SmartCage. After a washout period of at least 24 hours following a TST evaluation during which the animals were group-housed (5/cage), individual mice were placed into a freshly prepared home cage and their activity recorded simultaneously using the SmartCage™ system and a video camera placed above the SmartCage™ system.
Active wakefulness was defined as actively moving, rearing, and exploratory behaviors. […] Likewise, distance traveled in centimeters was obtained from the lower horizontal IR and calculated taking into account the animal's path. […] The calculated distance traveled (at any given time period, called ‘block’, or ‘total measuring period’) and speed were the two main parameters for locomotor activity. […]

[3] = Binding assays; conditions: 1.0E−05 M
Description: A study was conducted to test COMPOUND D and COMPOUND E in Binding and enzyme and uptake assays.
COMPOUND D and COMPOUND E were tested at 1.0E-05 M.
The results are expressed as a percent of control specific binding and as a percent inhibition of control specific binding
The IC50 values (concentration causing a half-maximal inhibition of control specific binding) and Hill coefficients (nH) were determined by non-linear regression analysis of the competition curves generated with mean replicate values using Hill equation curve fitting […]
where Y=specific binding, A=left asymptote of the curve, D=right asymptote of the curve, C=compound concentration, C50=IC50, and nH=slope factor. This analysis was performed using software developed at Cerep (Hill software) and validated by comparison with data generated by the commercial software SigmaPlot® 4.0 for Windows® (© 1997 by SPSS Inc.).
The inhibition constants (Ki) were calculated using the Cheng Prusoff equation where L=concentration of radioligand in the assay, and KD=affinity of the radioligand for the receptor. A scatchard plot is used to determine the KD.
In Vitro Pharmacology. Results showing an inhibition (or stimulation for assays run in basal conditions) higher than […] were considered to represent significant effects of the test compounds. Results showing an inhibition (or stimulation) between 25% and 50% are indicative of weak to moderate effects. Results showing an inhibition (or stimulation) lower than […] were not considered significant and mostly attributable to variability of the signal around the control level.

[4] = format: in vitro ADME, mouse; conditions: mice Blood, wet ice bath, 5% Paraoxon ethyl as stabilizer; for % stability: 0.5 hr
[5] = Preclinical PK after intraperitoneal dosing of COMPOUND D, COMPOUND B and viloxazine; format: in vivo, mouse; conditions: COMPOUND D IP 10.978 mg/kg; for Cmax: read-out: Cmax, plasma COMPOUND D
[6] = format: in vitro ADME; conditions: Rat plasma, wet ice bath
Description: A study was conducted to examine the bioanalytical data for compounds in Rat plasma. […] Frozen Sprague Dawley rat (male pooled) and human (mixed gender) plasma was utilized for the study. Test compounds were dissolved in dimethyl sulfoxide (DMSO) to make a 10 mM stock solution. A working solution was made with MeOH/water. […]

## CCOc1ccccc1OC[C@@H]1CN(C(=O)OC(OC(=O)[C@H](N)C(C)C)C(C)C)CCO1 (stereo partly shown) [COMPOUND C]
[1]; COMPOUND C 30 mg/kg PO, dose-response study, vs vehicle
  percent immobility time: tendency in decreasing immobility
[1]; COMPOUND C 30 mg/kg PO, follow-up study, vs vehicle (p=0.43)
  percent immobility time: no significant reduction in immobility
[1]; COMPOUND C 10, 30, 60, 90 mg/kg PO 30 min prior, ANOVA across all doses
  percent immobility time: no significant reduction in immobility
[2]; COMPOUND C 10, 30, 60 and 90 mg/kg PO
  home cage activity (activity, rearing, distance, velocity): no significant effect on daytime or nighttime activity measurements

## CCOc1ccccc1OCC1CN(C(=O)OC(C)OC(=O)[C@H](N)C(C)C)CCO1 (stereo partly shown) [COMPOUND D]
[3]
  inhibition, 5-HT2B(h) (antagonist effect): 81.5%
  inhibition, 5-HT2c(h) (antagonist effect): 72.4%
  inhibition, 5-HT4e(h) (antagonist radioligand): 78.6%
  inhibition, norepinephrine transporter(h) (antagonist radioligand): 78.4%
[4]; HQC, 0 hr sample
  Mean peak area: 1.315
[4]; HQC
  % stability: 52%
[4]; HQC, 0.5 hr sample
  Mean peak area: 0.682
[4]; LQC, 0 hr sample
  Mean peak area: 0.00479
[4]; LQC
  % stability: 54.7%
[4]; LQC, 0.5 hr sample
  Mean peak area: 0.00262
[5]; CD-1, mouse, plasma, ip, 10.978 mg/kg, 0.250 h, individual mice, read-out: Plasma concentration of COMPOUND D
  concentration at 0.25 h: 3.44 ng/mL
[5]; CD-1, mouse, plasma, ip, 10.978 mg/kg, 0.500 h, individual mice, read-out: Plasma concentration of COMPOUND D
  concentration at 0.5 h: 1.12 ng/mL
[5]; CD-1, mouse, plasma, ip, 10.978 mg/kg, 1.00 h, individual mice
  concentration at 1 h: 5.74 ng/mL
[5]; CD-1, mouse, plasma, ip, 10.978 mg/kg, 24.0 h, individual mice
  concentration at 24 h: 3.48 ng/mL
[5]; CD-1, mouse, plasma, ip, 10.978 mg/kg, individual mice
  Cmax: 5.74 ng/mL
[5]; CD-1, mouse, plasma, ip, 10.978 mg/kg, mean, read-out: AUC0-last, plasma COMPOUND D
  AUC(0-t): 42.3 ng·h/mL
[5]; CD-1, mouse, plasma, ip, 10.978 mg/kg, mean
  Cmax: 4.61 ng/mL
[5]; CD-1, mouse, plasma, ip, 10.978 mg/kg, mean, read-out: MRT0-last, plasma COMPOUND D
  MRT last: 6.5 h
[5]; CD-1, mouse, plasma, ip, 10.978 mg/kg, mean, read-out: Tmax, plasma COMPOUND D
  Tmax: 12.5 h
[5]; 0.250 h, individual mice, 10.978 mg/kg
  Plasma concentration of COMPOUND D: BQL
[5]; 0.500 h, individual mice, 10.978 mg/kg
  Plasma concentration of COMPOUND D: BQL
[5]; 1.00 h, individual mice, 10.978 mg/kg
  Plasma concentration of COMPOUND D: BQL
[5]; 2.00 h, individual mice
  Plasma concentration of COMPOUND D: BQL
[5]; 4.00 h, individual mice
  Plasma concentration of COMPOUND D: BQL
[5]; 8.00 h, individual mice
  Plasma concentration of COMPOUND D: BQL
[5]; 8.00 h, individual mice, 10.978 mg/kg
  Plasma concentration of Viloxazine: BQL
[5]; 24.0 h, individual mice
  Plasma concentration of Viloxazine: BQL
[5]; 24.0 h, individual mice, 10.978 mg/kg
  Plasma concentration of COMPOUND D: BQL
[5]; individual mice, 10.978 mg/kg
  AUC0-last, plasma COMPOUND D: 2.00 ng·h/mL and 82.6 ng·h/mL
  Cmax, plasma COMPOUND D: 3.48 ng/mL
  MRT0-last, plasma COMPOUND D: 0.860 h and 12.1 h
  Tlast, plasma COMPOUND D: 1.00 h and 24.0 h
  Tmax, plasma COMPOUND D: 1.00 h and 24.0 h
[5]; mean
  Tlast, plasma COMPOUND D: 12.5 h
[6]; 5% Paraoxon ethyl as stabilizer, HQC, 0 hr sample
  Mean peak area ratio: 1.83
[6]; 5% Paraoxon ethyl as stabilizer, HQC, 1 hr
  % stability: 58.7%
[6]; 5% Paraoxon ethyl as stabilizer, HQC, 1 hr sample
  Mean peak area ratio: 1.07
[6]; 5% Paraoxon ethyl as stabilizer, HQC, 2 hr
  % stability: 26.0%
[6]; 5% Paraoxon ethyl as stabilizer, HQC, 2 hr sample
  Mean peak area ratio: 0.47
[6]; 5% Paraoxon ethyl as stabilizer, LQC, 0 hr sample
  Mean peak area ratio: 0.00608
[6]; 5% Paraoxon ethyl as stabilizer, LQC, 1 hr
  % stability: 57.3%
[6]; 5% Paraoxon ethyl as stabilizer, LQC, 1 hr sample
  Mean peak area ratio: 0.00348
[6]; 5% Paraoxon ethyl as stabilizer, LQC, 2 hr
  % stability: 36.9%
[6]; 5% Paraoxon ethyl as stabilizer, LQC, 2 hr sample
  Mean peak area ratio: 0.00224
[6]; No stabilizer, HQC, 0 hr sample
  Mean peak area ratio: 0.67
[6]; No stabilizer, HQC, 1 hr
  % stability: 31.2%
[6]; No stabilizer, HQC, 1 hr sample
  Mean peak area ratio: 0.21
[6]; No stabilizer, HQC, 2 hr
  % stability: 8.0%
[6]; No stabilizer, HQC, 2 hr sample
  Mean peak area ratio: 0.05
[6]; No stabilizer, LQC, 0 hr sample
  Mean peak area ratio: 0.00292
[6]; No stabilizer, LQC, 1 hr
  % stability: 30.1%
[6]; No stabilizer, LQC, 1 hr sample
  Mean peak area ratio: 0.00088
[6]; No stabilizer, LQC, 2 hr
  % stability: 6.8%
[6]; No stabilizer, LQC, 2 hr sample
  Mean peak area ratio: 0.0002

## CCOc1ccccc1OC[C@@H]1CN(C(=O)OC(C)OC(=O)[C@@H](N)C(C)C)CCO1 (stereo partly shown) [COMPOUND A]
[1]; COMPOUND A 32 mg/kg PO
  decrease of immobility compared to vehicle: 30%
[1]; COMPOUND A 4, 8, 16, 32 mg/kg PO, ANOVA p=0.006
  percent immobility time: significant reduction in immobility
[2]; COMPOUND A 10, 30 and 90 mg/kg PO
  home cage activity (activity, rearing, distance, velocity): no significant effect on daytime or nighttime activity measurements
